Data on two molecules can be found in patent US20250221981A1, “MAT2A INHIBITOR AND/OR TSG101 INHIBITOR FOR USE IN ANTIVIRAL THERAPY” (CAMBRIDGE ENTERPRISE LIMITED, priority 2022, published 2025).

One data set has as its system RPTE/hTERT cells. Description: Cell viability assay, CellTiter-Blue fluorescence. As to the method: RPTE/hTERT cells were treated with MAT2A inhibitors at increasing concentrations for 48 hrs and assayed for cell viability using CellTiter-Blue fluorescence. Experiments were conducted using biological triplicates.
Experiment was conducted using biological triplicates.
Cell viability was assessed using the Cell-Titer-Blue assay (Promega), following manufacturers guidelines.
Background: Alamar Blue is a resazurin reagent that responds to reducing activity.

The test system of data set [1] is BKPyV. Kind of data set: Fluorescence focus unit (FFU) assay of infectious BKPyV from treated RPTE/TERT1 cells. The class given is cell-based, BK polyomavirus. The following applies: added 1 hr post infection, MOI 1. On the procedure:
(B) Effect of PF-9366 on viral replication: Cells were infected with BKPyV (MOI 1) in media containing appropriate drug concentrations. At 1 hpi infectious media was removed, cells were washed and fresh media with appropriate drug concentrations was added. At 48 hpi cells were harvested and infectious BKPyV was measured by FFU assay. n=3.
(§1) Cells were treated with MAT2A inhibitors at 1 hr post infection and were harvested at 48 hr post infection at MOI 1. (A) Total infectious BKPyV synthesis expressed as fold change to DMSO control (FFU titre assay). (B) Total viral protein expression (LTAg and VP1) was analysed by western blot. Tubulin was used as loading control. All error bars represent SEM. Two sample paired T-test was used to determine significance (*p<0.05; **p<0.01; ***p<0.001, ****p<0.0001), all numerical data shown were obtained over 2 independent experiments.
(§2) RPTE/hTERT cells were treated with inhibitors at 1 hr post infection (PI), infected at MOI 1. (A) Viral growth curves using FFU titre assay in drug treated and untreated cells infected with BKPyV at MOI 1 for 48 hr PI, 72 hr PI and 96 hr PI. (B) Total viral protein expression (LTAg and VP1) from drug treatments and untreated control was analysed by western blot with samples harvested at 48 hr PI and 96 hr PI. Tubulin was used as loading control. All error bars represent SEM. All numerical data shown were obtained over 2 independent experiments.
The ability for PF-9366 to inhibit the production of infectious virus was then investigated. RPTE/TERT1 cells were once again treated with a concentration range of PF-9366 or DMSO as a control prior to infection, and as before, infected with BKPyV (MOI 1) then washed and media replaced at 1 hpi. At 48 hpi total virus was harvested from each condition and an FFU assay was conducted to determine BKPyV virus titre (FIG. 3B).
For BKPyV infections, RPTE/TERT1, RPTE/TERT1-Cas9 or RPTE/TERT1 MAT2A KO cells were infected with BKPyV at either a multiplicity of infection (MOI) of 5 for growth curves or an MOI of 3 or 1 for all other experiments, diluted in appropriate medium. At 1 hour post infection (hpi) medium was removed, cells were washed twice with phosphate-buffered saline (PBS), and fresh medium was added with or without inhibitors. At 24, 48, 72 or 96 hpi cells were either harvested for western blot, RT qPCR or virus titre by FFU assay, or fixed for immunofluorescence analysis.
FFU assays were used to determine the concentration of infectious BKPyV in experimental samples. RPTE/TERT1 cells were infected with sample dilutions, fixed at 48 hpi in 3% formaldehyde, and immunostained for VP1 expression as described in Evans et al. (Open Biol. 2015 August; 5 (8): 150041).
Example 1: PF-9366 (Sigma-Aldrich) and AG-270 (kindly supplied by Astra Zeneca) were diluted in 100% DMSO. Cells were drug treated at a range of concentrations in REBM supplemented with BulletKit (Lonza) for 3 hours prior to infection. Cells were infected with BK-Dunlop in media and appropriate drug dilution. At 1 hpi infectious media was removed, cells gently washed with PBS and media containing appropriate drug dilutions was added. At 48 hpi cells were either fixed in 3% formaldehyde for microscopy, or harvested by scraping up into fresh drug-free media.
TSG101 inhibitor Ilaprazole (Sigma-Aldrich) was diluted in 100% DMSO. Cells were treated at a range of inhibitor concentrations and combinations, in appropriate media for the cell type used, for either 3 hours prior to infection (HSV-1, Alphavirus and Flavivirus infections) or 1 hour post infection (BKPyV infection).

Data set [2] deals with BKPyV. Kind of data set: Western blot of BKPyV viral protein expression (LTAg, VP1) in RPTE/TERT1 cells. The class given is cell-based, BK polyomavirus. Conditions: MOI 1. As to the method:
(C)(i) Effect of PF-9366 on viral early and late gene and cellular MAT2A expression: Cells were infected with BKPyV (MOI 3) in media containing appropriate drug concentrations. At 1 hpi infectious media was removed, cells were washed and fresh media with appropriate drug concentrations was added. Cells were harvested at 48 hpi and a western blot performed. Membranes were blotted for viral late gene VP1, LTAg, cellular MAT2A/MAT1A, and tubulin as a loading control.
(iii) Viral gene expression is modulated in response to PF-9366: The density of BKPyV VP1 and LTAg expression were measured, normalized to tubulin loading control (LiCor Image Studio Software), n=3.
as §1, §2
It has previously been noted by Quinlan et al. (Nat Chem Biol. 2017 13 (7): 785-792) that treatment with PF-9366 can increase MAT2A expression as a compensatory mechanism within cells. To investigate this, cells were once again treated with a range of PF-9366 for 3 hours prior to infection (or DMSO treated). Cells were infected with BKPyV (MOI 3), washed at 1 hpi, and fresh drug treated media was added. At 48 hpi cells were harvested and protein expression was analysed by western blotting (FIG. 3C(i)). MAT2A expression was quantified from band intensities, normalised to the tubulin loading control and plotted (FIG. 3C(ii), n=3). A clear increase in the cellular expression of MAT2A was observed, up to an 8-fold increase at 10 μM PF-9366. Western blot analysis was also conducted on early viral gene (LTAg) and late viral gene (VP1) expression (FIG. 3C(iii), n=3).
Cell lysate preparation and western blots were performed as described in Ren et al. (J Gen Virol. 2012 February; 93 (Pt 2): 319-329). Primary antibodies used were ab53977 (VP1), PAb416 (LTAg), sc-166452 (MAT2A/1A), ab110226 (VP16), sc-53070 (ICP0), anti-Zika E Protein, and either anti-GAPDH or anti-tubulin as a loading control, followed by IRDye 680LT-, or IRDye 800CW-conjugated secondary antibodies. Imaging was performed using the LI-COR Odyssey Infrared Imaging system. Quantification was performed using LI-COR Image Studio Software.
On the technique in general: Immunoblotting shows a protein as a band on a membrane.

The mark [3] stands for this setting: 125 nM to 1 μM, dose dependent, 48 hr post infection.

With `CN(C)c1nc(=O)n(-c2ccccc2)c2cc(Cl)ccc12` [AZ28], the “effect on cell viability and metabolism” value in the data set on RPTE/hTERT cells (at concentrations inhibiting BKPyV replication, 48 hrs) was “little effect”. The “inhibition of BKPyV replication (total infectious BKPyV, FFU titre)” value in the data set on BKPyV [1] (125 nM, 250 nM, 500 nM and 1 μM, 48 hr post infection) is “significant dose dependent inhibition”. Moreover, in the data set with BKPyV [2] (setting [3]), the “early viral protein (LTAg) levels (western blot)” value is given as “reduced” and the “late viral protein (VP1) levels (western blot)” value is given as “reduced”.
`COc1ccnc(C[S+]([O-])c2nc3cc(-n4cccc4)ccc3[nH]2)c1C` (stereo not shown) [Ilaprazole]: the “effect on cell viability” value in the data set with RPTE/hTERT cells (Ilaprazole alone, every 48 hr until 144 hr) was “little effect”. Further, the “BKPyV viral replication (FFU titre)” value in the data set with BKPyV [1] (Ilaprazole alone) was “significantly inhibit”. For the same molecule, in the data set on BKPyV [2] (Ilaprazole alone, 48 and 96 hr PI), the “BKPyV protein expression (LTAg and VP1, western blot)” value is “significantly inhibit”.
